#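 Test compounds were applied to cells in 96-well plates for 48 hours at 5 doses. GI50: concentration for 50% inhibition of growth.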 Activity calls are given as the source filed them. Rule as the data show it: active = GI50 up to about 1.1 µM and inactive = higher.
# Columns and labels:
# Test in all cases: NCI-60 cell line screen, 48 h
# DMS-273 = tested on: DMS-273
# 786-0 = tested on: 786-0
# SK-OV-3 = tested on: SK-OV-3
# SF-268 = tested on: SF-268
# IGROV-1 = tested on: IGROV-1
# UACC-62 = tested on: UACC-62
# HOP-62 = tested on: HOP-62
# SR = tested on: SR
# HCT-15 = tested on: HCT-15
# CAKI-1 = tested on: CAKI-1
# XF498 = tested on: XF498
# SW-620 = tested on: SW-620
# UACC-257 = tested on: UACC-257
# OVCAR-5 = tested on: OVCAR-5
# OVCAR-3 = tested on: OVCAR-3
# HCC 2998 = tested on: HCC 2998
# NCI-H460 = tested on: NCI-H460
# HT-29 = tested on: HT-29
# LOX IMVI = tested on: LOX IMVI
# SF-539 = tested on: SF-539
# NCI-H23 = tested on: NCI-H23
# RXF 393 = tested on: RXF 393
# OVCAR-8 = tested on: OVCAR-8
# NCI-H226 = tested on: NCI-H226
# RPMI-8226 = tested on: RPMI-8226
# SN12C = tested on: SN12C
# ACHN = tested on: ACHN
# Malme-3M = tested on: Malme-3M
# HOP-18 = tested on: HOP-18
# TK-10 = tested on: TK-10
# HL-60 = tested on: HL-60
# SK-MEL-2 = tested on: SK-MEL-2
# A549 = tested on: A549
# LXFL 529 = tested on: LXFL 529
# M14 = tested on: M14
# CCRF-CEM = tested on: CCRF-CEM
# KM12 = tested on: KM12
# KM-20L2 = tested on: KM-20L2
# SK-MEL-28 = tested on: SK-MEL-28
# COLO 205 = tested on: COLO 205
# DMS-114 = tested on: DMS-114
# A498 = tested on: A498
# HOP-92 = tested on: HOP-92
# DLD-1 = tested on: DLD-1
# U-251 = tested on: U-251
# SNB-75 = tested on: SNB-75
# HCT-116 = tested on: HCT-116
# MOLT-4 = tested on: MOLT-4
# SK-MEL-5 = tested on: SK-MEL-5
# SNB-78 = tested on: SNB-78
# SF-295 = tested on: SF-295
# SNB-19 = tested on: SNB-19
# NCI-H522 = tested on: NCI-H522
# UO-31 = tested on: UO-31
# M19-MEL = tested on: M19-MEL
# K562 = tested on: K562
# EKVX = tested on: EKVX
smiles,measurement,setting,value
Cc1ccc(N2C(=O)C3C=CC(n4[nH]c(=O)n(Cc5ccccc5)c4=O)CC3C2=O)cc1 (configuration not stated),GI50,DMS-273,> 100 µM (inactive)
same,GI50,786-0,> 100 µM (inactive)
same,GI50,SK-OV-3,> 100 µM (inactive)
same,GI50,SF-268,> 100 µM (inactive)
same,GI50,IGROV-1,> 100 µM (inactive)
same,GI50,UACC-62,> 100 µM (inactive)
same,GI50,HOP-62,> 100 µM (inactive)
same,GI50,SR,> 100 µM (inactive)
same,GI50,HCT-15,> 100 µM
same,GI50,CAKI-1,> 100 µM (inactive)
same,GI50,XF498,> 100 µM (inactive)
same,GI50,SW-620,> 100 µM (inactive)
same,GI50,UACC-257,> 100 µM (inactive)
same,GI50,OVCAR-5,> 100 µM (inactive)
same,GI50,OVCAR-3,> 100 µM (inactive)
same,GI50,HCC 2998,> 100 µM (inactive)
same,GI50,NCI-H460,> 100 µM (inactive)
same,GI50,HT-29,> 100 µM (inactive)
same,GI50,LOX IMVI,> 100 µM (inactive)
same,GI50,SF-539,> 100 µM (inactive)
same,GI50,NCI-H23,> 100 µM (inactive)
same,GI50,RXF 393,> 100 µM (inactive)
same,GI50,OVCAR-8,> 100 µM (inactive)
same,GI50,NCI-H226,> 100 µM (inactive)
same,GI50,RPMI-8226,> 100 µM (inactive)
same,GI50,SN12C,> 100 µM (inactive)
same,GI50,ACHN,> 100 µM (inactive)
same,GI50,Malme-3M,> 100 µM (inactive)
same,GI50,HOP-18,> 100 µM (inactive)
same,GI50,TK-10,> 100 µM (inactive)
same,GI50,HL-60,> 100 µM (inactive)
same,GI50,SK-MEL-2,> 100 µM (inactive)
same,GI50,A549,> 100 µM (inactive)
same,GI50,LXFL 529,> 100 µM (inactive)
same,GI50,M14,> 100 µM (inactive)
same,GI50,CCRF-CEM,> 100 µM (inactive)
same,GI50,KM12,> 100 µM (inactive)
same,GI50,KM-20L2,> 100 µM (inactive)
same,GI50,SK-MEL-28,> 100 µM (inactive)
same,GI50,COLO 205,> 100 µM (inactive)
same,GI50,DMS-114,> 100 µM (inactive)
same,GI50,A498,> 100 µM (inactive)
same,GI50,HOP-92,> 100 µM (inactive)
same,GI50,DLD-1,> 100 µM (inactive)
same,GI50,U-251,> 100 µM (inactive)
same,GI50,SNB-75,74.6 µM (inactive)
same,GI50,HCT-116,> 100 µM (inactive)
same,GI50,MOLT-4,> 100 µM (inactive)
same,GI50,SK-MEL-5,> 100 µM (inactive)
same,GI50,SNB-78,> 100 µM (inactive)
same,GI50,SF-295,> 100 µM (inactive)
same,GI50,SNB-19,> 100 µM (inactive)
same,GI50,NCI-H522,> 100 µM (inactive)
same,GI50,UO-31,> 100 µM (inactive)
same,GI50,M19-MEL,> 100 µM (inactive)
same,GI50,K562,> 100 µM (inactive)
same,GI50,EKVX,> 100 µM (inactive)

# Reference: ChEMBL document CHEMBL1201862, “PubChem BioAssay data set” (2004)
